According to patent US10584159B2, “Renilla based biosensors for monitoring biomolecule localization and trafficking in cells” (The Royal Institution for the Advancement of …, priority 2014, dated 2020):

How the values were obtained:
AT1R [1] = target: T1, AT1R (Homo sapiens, UniProt P30556); test: PKN-based RhoA activation BRET assay (PKN-crib-RlucII/rGFP-CAAX) with AT1R; type: cell-based; conditions: 100 nM Ubo-Qic 30 min, ligand 4 min
T1 construct: expressed in transfected cells; host or cells: HEK293SL
T1 sequence (P30556 1-359): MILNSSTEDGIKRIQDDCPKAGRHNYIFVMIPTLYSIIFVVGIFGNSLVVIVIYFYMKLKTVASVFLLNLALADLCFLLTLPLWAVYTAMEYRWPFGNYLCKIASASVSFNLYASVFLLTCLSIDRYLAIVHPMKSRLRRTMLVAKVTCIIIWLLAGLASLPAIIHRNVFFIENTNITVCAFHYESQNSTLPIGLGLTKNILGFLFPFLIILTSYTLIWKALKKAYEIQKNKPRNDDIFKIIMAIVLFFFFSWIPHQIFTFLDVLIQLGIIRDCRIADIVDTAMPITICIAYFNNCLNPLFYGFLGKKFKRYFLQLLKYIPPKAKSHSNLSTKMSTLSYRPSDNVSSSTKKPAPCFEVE
Method: (§1) BRET measurements for FIGS. 1B to 9D, 25D to 25F. The following day of transfection, cells were detached and replated onto poly-ornithine coated white 96-well plate at a density of 25,000 cells per well. The next day, cells were washed once with pre-warmed Tyrode's buffer (140 mM NaCl, 2.7 mM KCl, 1 mM CaCl2, 12 mM NaHCO3, 5.6 mM D-glucose, 0.5 mM MgCl2, 0.37 mM NaH2PO4, 25 mM HEPES, pH 7.4), and then stimulated with either various concentrations of ligands in Tyrode's buffer for the indicated time, or single concentration of ligands for various times at 37° C. For recycling experiment, after stimulating the cells with the ligands for 30 min at 37° C., they were washed either three times with ice-cold Tyrode's buffer or once with Tyrode's buffer/three times with acid (50 mM sodium citrate, pH 4.0)/two times with Tyrode's buffer. All the washing steps were performed on ice. […] The cell-permeable substrate, coelenterazine 400a was added at a final concentration of 5 μM in Tyrode's buffer 3-4 min before BRET measurements. […] The BRET signal was determined by calculating the ratio of the light intensity emitted by the GFP10 or rGFP over the light intensity emitted by the RlucII. All the BRET measurements were performed in triplicate at 37° C.
PKN-based RhoA activation assay. For FIGS. 25B-D, HEK293SL cells were grown in DMEM supplemented with 6% fetal bovine serum (FBS) and 20 μg/ml gentamycin, at 37° C. Cells were seeded at a density of 7.5×10^5 cells per 100 mm dishes and were transiently transfected the next day with constructs encoding AT1R (3 μg) along with PKN-crib-RlucII (90 ng) and rGFP-CAAX (480 ng) using calcium phosphate method as described previously. After 24 h, cells were detached and seeded onto poly-ornithine-coated 96-well white plates at a density of 25 000 cells per well in media. The next day, cells were washed once with Tyrode's buffer and left in 80 μl of Tyrode's buffer at 37° C. When indicated, cells were treated with Ubo-Qic 100 nM for 30 min or C3 toxin for 3 μg/ml (in FIG. 25I), 4 hours at 37° C. Cell stimulation and BRET measurements were done at RT. BRET signals were monitored by addition of Coel-400a to a final concentration of 5 μM using a Synergy2 (BioTek®) microplate reader. […] For FIG. 25B, a transfection mix of 200 ng of TPαR, 20 ng PKN-RlucII, 600 ng CAAX-rGFP, complemented to 2 μg with ssDNA and PEI at a ratio of PEI:DNA of 3:1, is added to 3 ml of Hek293SL (350 000 cells/ml). Cells were seeded on poly-D-lysine pretreated plates. […] Cells were stimulated for 2 min with the indicated doses of U46619. […] For FIGS. 25I and J, a transfection mix of 200 ng of TPαR, 20 ng PKN-RlucII, 600 ng CAAX-rGFP, complemented to 2 μg with ssDNA and PEI at a ratio of PEI:DNA of 3:1, is added to 3 ml of Hek293SL (350,000 cells/ml). Cells were seeded on poly-D-lysine pretreated plates. 24 h post-transfection, the Rho inhibitor (CT04; Cytoskeleton, Inc) was added when indicated, overnight at final concentration 2 μg/ml. 48 h post-transfection, cells were washed and preincubated in Tyrode +1 mM CaCl2 at 37° C. for 60 min then treated, as indicated, with 100 nM of U46619 or 1 μg/ml of Rho activator II (CN03; Cytoskeleton, Inc) for 1 min at 37° C. […] BRET was measured at 37° C., using a Tristar Microplate Reader (Berthold Technologies).

[2] = test system: V2R mutants (Y128S and W164S); test: BRET pharmacological chaperone rescue assay (rGFP-CAAX), V2R mutants; type: cell-based, human; conditions: 10 μM, 16 h, BRET1
Method: BRET assay for evaluation of PC rescue of cell surface expression and functionality (sequestration assay). In FIGS. 12A to 18E, Hek293 cells were transiently transfected using PEI as described in this section. The DNA transfected per well of a 96-well plate is as follow: in FIGS. 12A and 12B, with 2.4 ng of hMC4R-RlucII encoding construct and an increasing quantity of rGFP-CAAX (Kras) up to 9.6 ng for FIGS. 12A and for 12B, rGFP-PB up to 9.6 ng; in FIGS. 13A to 13C with 0.6, 1.2 or 2.4 ng of hMC4R-RlucII and 4.8 ng of rGFP-CAAX (Kras); in FIG. 13D with 2.4 ng of polycistronic rGFP-CAAX(Kras)/MC4R-RlucII construct; in FIG. 13E with 1.2 ng of hV2R-RlucII and 4.8 ng of rGFP-CAAX (Kras); in FIGS. 14A to 16B with 2.4 ng of hMC4R-RlucII and 7.2 ng of rGFP-CAAX (Kras); Hek293 cells stably expressing rGFP-CAAX(Kras) were transfected with 0.6, 1.2 or 2.4 ng of hMC4R-RlucII; in FIG. 17A or 0.6, 1.2 or 2.4 ng of hV2R_Y128S-RlucII; in FIG. 17B; in FIGS. 18A and 18B with 0.6, 1.2 or 2.4 ng of hERG-RlucII and 4.8 ng of rGFP-CAAX (Kras); and in FIGS. 18C-18E with 0.6 ng of hERG-RlucII and 7.2 ng of rGFP-CAAX (Kras). […] For the BRET assay, cells were washed once with PBS and left in Tyrode's buffer. […] BRET values were determined by calculating the ratio of the light emitted by the acceptor over the light emitted by the RlucII.

AT1R [3] = target: T1, AT1R; test: β-arrestin2 targeting to endosomes BRET (AT1R/βarr2-RlucII/rGFP-endofinFYVE); type: cell-based
Method: BRET measurements for FIGS. 1B to 9D, 25D to 25F. The following day of transfection, cells were detached and replated onto poly-ornithine coated white 96-well plate at a density of 25,000 cells per well. The next day, cells were washed once with pre-warmed Tyrode's buffer (140 mM NaCl, 2.7 mM KCl, 1 mM CaCl2, 12 mM NaHCO3, 5.6 mM D-glucose, 0.5 mM MgCl2, 0.37 mM NaH2PO4, 25 mM HEPES, pH 7.4), and then stimulated with either various concentrations of ligands in Tyrode's buffer for the indicated time, or single concentration of ligands for various times at 37° C. For recycling experiment, after stimulating the cells with the ligands for 30 min at 37° C., they were washed either three times with ice-cold Tyrode's buffer or once with Tyrode's buffer/three times with acid (50 mM sodium citrate, pH 4.0)/two times with Tyrode's buffer. All the washing steps were performed on ice. Cells were then further incubated with Tyrode's buffer at 37° C. in a water bath for 45 min. The cell-permeable substrate, coelenterazine 400a was added at a final concentration of 5 μM in Tyrode's buffer 3-4 min before BRET measurements. Measurements were performed by using Synergy2 (BioTek®) microplate reader with a filter set of 410±80 nm and 515±30 nm for detecting the RlucII Renilla luciferase (donor) and GFP10 or rGFP (acceptor) light emissions, respectively. The BRET signal was determined by calculating the ratio of the light intensity emitted by the GFP10 or rGFP over the light intensity emitted by the RlucII. All the BRET measurements were performed in triplicate at 37° C.

AT1R [4] = target: T2, AT1R (Homo sapiens, UniProt P30556); test: AT1R sorting to rab4 vesicles BRET (AT1R-RlucII/rGFP-rab4); type: cell-based; design: expressed in transfected cells; host or cells: HEK293SL (HEK293 for the screen); conditions: 100 nM AngII, 100 nM SI, 1 μM DVG
T2 sequence (P30556 with tags, fused parts or gaps): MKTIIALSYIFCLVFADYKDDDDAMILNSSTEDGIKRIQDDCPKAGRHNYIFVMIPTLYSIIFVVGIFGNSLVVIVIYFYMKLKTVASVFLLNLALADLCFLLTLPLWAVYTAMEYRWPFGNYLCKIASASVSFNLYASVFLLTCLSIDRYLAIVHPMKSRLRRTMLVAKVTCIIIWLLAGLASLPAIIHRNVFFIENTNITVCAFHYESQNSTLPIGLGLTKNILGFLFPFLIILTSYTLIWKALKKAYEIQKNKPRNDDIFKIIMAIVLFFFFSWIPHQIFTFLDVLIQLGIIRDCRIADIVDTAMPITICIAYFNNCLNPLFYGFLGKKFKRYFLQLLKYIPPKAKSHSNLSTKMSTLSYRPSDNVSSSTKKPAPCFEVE
Method: as §1

AT1R [5] = target: T2, AT1R; test: AT1R trafficking to endosomes BRET (AT1R-RlucII/rGFP-endofinFYVE); type: cell-based; design: expressed in transfected cells; host or cells: HEK293SL (HEK293 for the screen)
Method: as §1
(§2) Data Analysis. Estimation of the t1/2 and the EC50 values for ligand-mediated endocytosis were calculated using the GraphPad® Prism curve fitting program The curves presented throughout this study, representing the best fits, and were generated using this GraphPad® Prism program as well.

AT1R [6] = target: T2, AT1R; test: AT1R endocytosis BRET at plasma membrane (AT1R-RlucII/lyn-rGFP); type: cell-based; design: signal peptide-Flag-human AT1R (spFlag-AT1R); signal peptide (N); expressed in transfected cells; host or cells: HEK293SL (HEK293 for the screen); conditions: 0.45 M sucrose 20 min
Method: as §1, §2

[Sar1-Val5-D-Phe8] AngII [SVdF]
impact of Gq inhibition on ligand-mediated Rho activation (AT1R [1]): reduced efficacy and a rightward-shifted potency

CCOc1ccc2c(c1)C1(CCC(OCCN3CCOCC3)CC1)C(=O)N2S(=O)(=O)c1ccc(C(=O)NC(C)(C)C)cc1OC (centres unmarked) [SR121463]
PC-mediated rescue of cell surface expression [2]: PC-mediated rescue

CC[C@H](C)[C@H](NC(=O)[C@@H]1CCCN1C(=O)[C@H](Cc1c[nH]cn1)NC(=O)[C@@H](NC(=O)[C@H](Cc1ccc(O)cc1)NC(=O)[C@@H](NC(=O)[C@H](CCCNC(=N)N)NC(=O)CNC)C(C)C)[C@@H](C)CC)C(=O)O [SI, [Sar^1, IIe^8]-AngII]
β-arrestin2 trafficking to endosomes with receptors, compared to AngII (AT1R [3]; 40 min): weakly promoted
time at which BRET signal plateaued (AT1R [4]): 10 min
time to maximal AT1R internalization into endosomes (AT1R [5]; 100 nM SI or 1 μM DVG): 20 min
less efficacious than AngII at promoting AT1R concentration in early endosomes (AT1R [5]; 100 nM SI or 1 μM DVG vs 100 nM AngII): 20%
receptor accumulation in endosomes, compared to AngII (AT1R [5]; 40 min): promoted less receptor accumulation in endosomes
impact of Gq inhibition on ligand-mediated Rho activation (AT1R [1]): reduced efficacy and a rightward-shifted potency

CNCC(=O)N[C@@H](CCCN=C(N)N)C(=O)N[C@H](C(=O)N[C@@H](Cc1ccc(O)cc1)C(=O)N[C@H](C(=O)N[C@@H](Cc1cnc[nH]1)C(=O)N1CCC[C@H]1C(=O)N[C@@H](C)C(=O)O)C(C)C)C(C)C [Saralasin]
impact of Gq inhibition on ligand-mediated Rho activation (AT1R [1]): did not affect

OC[C@H]1O[C@@](CO)(O[C@H]2O[C@H](CO)[C@@H](O)[C@H](O)[C@H]2O)[C@@H](O)[C@@H]1O [sucrose]
effect on AngII-induced BRET response in the endosomes (β-arrestin2) (AT1R [3]; 0.45 M sucrose 20 min): efficiently blocked
effect on AngII-induced BRET response in the endosomes (receptor) (AT1R [5]; 0.45 M sucrose 20 min): efficiently blocked
effect on AngII-induced BRET response at the plasma membrane (AT1R [6]): efficiently blocked

CC[C@H](C)[C@H](NC(=O)[C@H](Cc1ccc(O)cc1)NC(=O)[C@@H](NC(=O)[C@H](CCCNC(=N)N)NC(=O)CNC)C(C)C)C(=O)N[C@@H](Cc1cnc[nH]1)C(=O)N1CCC[C@H]1C(=O)N[C@H](C)C(=O)O [TRV, [Sar1-D-Ala8] AngII]
impact of Gq inhibition on ligand-mediated Rho activation (AT1R [1]): did not affect

CO/C1=C\C(C)=C\[C@@H](C)[C@@H](O)[C@@H](C)C/C(C)=C/C=C/[C@H](OC)[C@@H]([C@@H](C)[C@@H](O)[C@H](C)[C@@]2(O)C[C@@H](O)[C@H](C)[C@@H](C(C)C)O2)OC1=O [bafilomycin A]
effect on agonist-mediated accumulation of AT1R in endosomes (AT1R [5]; AngII 40 min): increased
